According to paper PMC5562305, “Impact of novel palmitoylated prolactin-releasing peptide analogs on metabolic changes in mice with diet-induced obesity” (PLoS ONE, 2017):
Non-standard residues stand in square brackets, D forms with d. Residues, ends and D or L forms follow the SMILES beside them. NMeF = CN[C@@H](Cc1ccccc1)C(=O)O

Target: T1, human NPFF2 (Homo sapiens, UniProt Q9Y5X5)
T1 construct: purchased Perkin Elmer; host or cells: CHO-K1 cell membranes
Assay: Competitive binding of 125I-1DMe to human NPFF2 receptor membranes
Conditions: membranes of CHO-K1 cells overexpressing NPFF2, 0.1 nM radioligand, Cheng-Prusoff; mean ± SEM; SEM
Description: CHO-K1 cells expressing the GPR10 receptor (Thermo Fisher Scientific Inc., Waltham, MA, USA) were grown according to the manufacturer's instructions. Saturation and competitive binding experiments were performed according to the methods of Motulsky and Neubig. […] The experiments were performed on plated cells that were incubated for 60 min at 25°C. Non-specific binding was determined using 10^−5 M PrRP31. The binding assays involving human NPFF2 receptor membranes obtained from Perkin Elmer were performed as described in [18].
Data are presented as the means ± SEM. The competitive binding curves were plotted using GraphPad software (San Diego, CA, USA), and the best fits were compared for single-binding-site models (IC50 values were obtained from nonlinear regression analysis). Inhibition constants (Ki) were calculated from the IC50 values using the Cheng-Prusoff equation [23]. The concentration of the radioligand was 0.1 nM for cell membranes of CHO-K1 cells overexpressing NPFF2 and 0.03 nM for CHO-K1 cells overexpressing GPR10.

T1 sequence (Q9Y5X5 whole entry): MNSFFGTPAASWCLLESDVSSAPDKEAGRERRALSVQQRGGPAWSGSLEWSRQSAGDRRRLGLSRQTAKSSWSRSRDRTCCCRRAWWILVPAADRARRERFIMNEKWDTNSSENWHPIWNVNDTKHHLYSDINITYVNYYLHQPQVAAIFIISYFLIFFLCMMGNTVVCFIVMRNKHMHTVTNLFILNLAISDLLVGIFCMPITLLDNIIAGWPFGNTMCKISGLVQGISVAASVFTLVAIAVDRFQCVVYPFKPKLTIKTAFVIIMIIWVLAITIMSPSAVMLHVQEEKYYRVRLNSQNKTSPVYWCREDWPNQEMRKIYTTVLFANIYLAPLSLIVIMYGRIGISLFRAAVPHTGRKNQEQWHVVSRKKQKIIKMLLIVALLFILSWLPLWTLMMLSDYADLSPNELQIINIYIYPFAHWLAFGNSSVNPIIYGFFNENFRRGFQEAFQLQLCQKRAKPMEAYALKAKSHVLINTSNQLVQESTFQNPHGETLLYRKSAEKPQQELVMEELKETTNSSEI

| Ki [nM] | Compound |
| --- | --- |
| 1.8 ± 0.54 | CC(C)C[C@H](NC(=O)[C@H](N)Cc1ccc(O)cc1)C(=O)N(C)[C@@H](Cc1ccccc1)C(=O)N[C@@H](CCC(N)=O)C(=O)N1CCC[C@H]1C(=O)N[C@@H](CCC(N)=O)C(=O)N[C@@H](CCCN=C(N)N)C(=O)N[C@@H](Cc1ccccc1)C(N)=O [1DMe, reference compound] (H-[dY]L[NMeF]QPQRF-NH2) |
| 50 ± 24.3 | CC[C@H](C)[C@H](NC(=O)CNC(=O)[C@H](CCCNC(=N)N)NC(=O)[C@H](CO)NC(=O)[C@H](C)NC(=O)[C@H](Cc1ccc(O)cc1)NC(=O)[C@H](Cc1c[nH]c2ccccc12)NC(=O)[C@H](C)NC(=O)[C@@H]1CCCN1C(=O)[C@H](CC(N)=O)NC(=O)[C@@H](NC(=O)[C@H](CC(=O)O)NC(=O)[C@@H]1CCCN1C(=O)[C@@H](NC(=O)[C@H](CCCNC(=N)N)NC(=O)[C@@H](NC(=O)[C@H](CCC(=O)O)NC(=O)[C@H](CCSC)NC(=O)[C@H](CO)NC(=O)[C@H](Cc1c[nH]cn1)NC(=O)[C@H](CCCNC(=N)N)NC(=O)[C@H](Cc1c[nH]cn1)NC(=O)[C@@H](NC(=O)[C@H](CCCNC(=N)N)NC(=O)[C@@H](N)CO)[C@@H](C)O)[C@@H](C)CC)[C@@H](C)O)[C@@H](C)CC)C(=O)N[C@@H](CCCNC(=N)N)C(=O)N1CCC[C@H]1C(=O)N[C@H](C(=O)NCC(=O)N[C@@H](CCCNC(=N)N)C(=O)N[C@@H](Cc1ccccc1)C(N)=O)C(C)C [human PrRP31, reference compound] |
